The text below walks through data of US12304890B2, “R-type pyridyloxycarboxylic acid, salt and ester derivative thereof, and preparation method therefor, and herbicidal composition and application thereof” (Qingdao Kingagroot Chemical Compound Co., Ltd., priority 2018, dated 2025).

What all share (format): in vivo
One data set has as its system Echinochloa crusgalli. Put plainly: Post-emergence test experiment, Echinochloa crusgalli. The note with it: for Echinochloa crusgalli, activity level (growth inhibition rate): 3 weeks; for Activity level (growth inhibition rate), Echinochloa crusgalli: 1000 g a.i./ha, 3 weeks in greenhouse, fresh weight inhibition. Summed up:
(§1)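 Growth inhibition is given as reduction in fresh weight, assessed 3 weeks post-treatment in the greenhouse. Spray solutions (acetone, tween-80, water, with 1.5 L/ha methyl oleate concentrate synergist) were applied to weeds and crops at 2-3 leaves, 2 weeks from sowing.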

A further data set relates to Digitaria sanguinalis. The experiment in a line: Post-emergence test experiment, Digitaria sanguinalis. The note with it: for Digitaria sanguinalis, activity level (growth inhibition rate): 3 weeks; for Activity level (growth inhibition rate), Digitaria sanguinalis: 1000 g a.i./ha, 3 weeks in greenhouse, fresh weight inhibition. Summed up:
as §1

Data set [1] relates to Semen Euphorbiae Lathyridis. The experiment in a line: Post-emergence test experiment, Semen Euphorbiae Lathyridis. The note with it: 3 weeks. Put shortly: as §1
A further data set concerns rice. Put plainly: Post-emergence test experiment, rice (crop selectivity). The note with it: 3 weeks. The procedure:
The above described growth inhibition rate is fresh weight inhibition rate.
Post-emergence test experiment: Monocotyledonous and dicotyledonous weed seeds and main crop seeds (i. e. wheat, corn, rice, soybean, cotton, oilseed, millet and sorghum.) were put into a plastic pot loaded with soil. Then covered with 0.5-2 cm soil, the seeds were allowed to grow in good greenhouse environment. The test plants were treated at 2-3 leaf stage 2 weeks after sowing. The test compounds of the invention were dissolved with acetone respectively, then added with tween-80, and using 1.5 liters per hectare of an emulsible concentrate of methyl oleate as a synergist, and diluted by certain amount of water to certain concentration. The solution was sprayed to the plants with a sprayer. Then the plants were cultured for 3 weeks in the greenhouse, and the experiment result of weed controlling effect was listed in tables 4-5.

For data set [2], the system named is Monocotyledonous and dicotyledonous weed seeds and main crop seeds. The experiment in a line: Post-emergence test experiment, other weeds and crops (Table 4, 1000 g a.i./ha). The note with it: 3 weeks in greenhouse, fresh weight inhibition. Put shortly:
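Growth inhibition is scored on fresh weight. Spray solutions were made in acetone with tween-80, diluted in water, plus 1.5 L/ha methyl oleate emulsible concentrate. Plants from greenhouse-grown weed and crop seeds were treated post-emergence at 2-3 leaves, 2 weeks after sowing.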

In the next data set the test system is rice (japonica rice). Put plainly: Transplanted rice safety evaluation. The note with it: transplanted 3-leaf japonica rice, 1000 g a.i./ha, 21 days after treatment. As for the experimental part: In addition, the rice field soil that loaded into the 1/1,000,000 ha pot was leveled to keep water storage at 3-4 cm depth. The 3-leaf stage rice (japonica rice) was transplanted at 3 cm of transplanting depth the next day. The compound of the present invention was treated by the same way after 5 days of transplantation.
(§2) The fertility condition of Monochoria vaginalis 14 days and rice 21 days after the treatment of the compound of the invention with the naked eye.

In the next data set the test system is Monochoria vaginalis. The experiment in a line: Weed control effect evaluation in rice field. The note with it: paddy pot, 0.5 leaf stage, 14 days, weed resistant to pyrazosulfuron-ethyl and penoxsulam. As for the experimental part:
Rice field soil was loaded into a 1/1,000,000 ha pot. The seeds of Monochoria vaginalis were sowed and gently covered with soil, then left to stand still in greenhouse in the state of 0.5-1 cm of water storage. It was kept at 3-4 cm of water storage thereafter. The weeds were treated by dripping the WP or SC water diluents prepared according to the common preparation method of the compounds of the present invention with pipette homogeneously to achieve specified effective amount when Monochoria vaginalis reached 0.5 leaf stage.
as §2

Setting [3] is: 200 g a.i./ha, weed resistant to ALS inhibitor and ACCe herbicides.
The mark [4] stands for this setting: 200 g a.i./ha, weed resistant to cyhalofop-butyl.

For the compound `CCOC(=O)[C@@H](C)Oc1nc(F)c(Cl)c(N)c1Cl` [Compound 2-71], the “Echinochloa crusgalli, activity level (growth inhibition rate)” value with Echinochloa crusgalli (setting [3]) is recorded as 5 (Level 5: the growth inhibition rate is greater than 85%); in the data set with Echinochloa crusgalli (400 g a.i./ha, resistant weed) it was 5 (Level 5: the growth inhibition rate is greater than 85%). Also, the “Activity level (growth inhibition rate), Echinochloa crusgalli” value in the data set with Echinochloa crusgalli was 5 (Level 5: the growth inhibition rate is greater than 85%). Further, the “Digitaria sanguinalis, activity level (growth inhibition rate)” value in the data set with Digitaria sanguinalis (setting [4]) is given as 5 (Level 5: the growth inhibition rate is greater than 85%); with Digitaria sanguinalis (400 g a.i./ha, resistant weed) it was 5 (Level 5: the growth inhibition rate is greater than 85%). Besides, in the data set with Digitaria sanguinalis, the “Activity level (growth inhibition rate), Digitaria sanguinalis” value is listed as 5 (Level 5: the growth inhibition rate is greater than 85%). Moreover, the “Semen Euphorbiae Lathyridis, activity level (growth inhibition rate)” value in data set [1] (setting [4]) is reported as 5 (Level 5: the growth inhibition rate is greater than 85%); in data set [1] (400 g a.i./ha, resistant weed), 5 (Level 5: the growth inhibition rate is greater than 85%). Also, the “rice, activity level (growth inhibition rate)” value (from here on “rice … (growth inhibition rate)”) was 0 (Level 0: the growth inhibition rate is less than 5%) in the data set on rice (200 g a.i./ha); 2 (Level 2: the growth inhibition rate is equal to or greater than 20% and less than 40%) in the data set on rice (400 g a.i./ha). Also, in data set [2], the “Activity level (growth inhibition rate), Abutilon theophrasti Medic.” value is given as 5 (Level 5: the growth inhibition rate is greater than 85%). Also, the “Activity level (growth inhibition rate), Galium aparine” value in data set [2] is 5 (Level 5: the growth inhibition rate is greater than 85%). In data set [2], the “Activity level (growth inhibition rate), Monochoria Vaginalis” value is 5 (Level 5: the growth inhibition rate is greater than 85%). In addition, in the data set with rice (japonica rice), the “rice, safety level 0-5” value is on record as 0 (Level 0: the growth inhibition rate is less than 5%). In the data set on Monochoria vaginalis (1000 g a.i./ha), the “Monochoria Vaginalis, activity level 0-5” value was 5 (Level 5: the growth inhibition rate is greater than 85%).

Regarding `CSC(=O)[C@@H](C)Oc1nc(F)c(Cl)c(N)c1Cl` [Compound 2-70], the “Echinochloa crusgalli, activity level (growth inhibition rate)” value in the data set with Echinochloa crusgalli (setting [3]) is listed as 5 (Level 5: the growth inhibition rate is greater than 85%). The “Activity level (growth inhibition rate), Echinochloa crusgalli” value in the data set on Echinochloa crusgalli is given as 5 (Level 5: the growth inhibition rate is greater than 85%). The “Digitaria sanguinalis, activity level (growth inhibition rate)” value with Digitaria sanguinalis (setting [4]) is 5 (Level 5: the growth inhibition rate is greater than 85%). The “Activity level (growth inhibition rate), Digitaria sanguinalis” value in the data set with Digitaria sanguinalis is 5 (Level 5: the growth inhibition rate is greater than 85%). Moreover, in data set [1] (setting [4]), the “Semen Euphorbiae Lathyridis, activity level (growth inhibition rate)” value is recorded as 5 (Level 5: the growth inhibition rate is greater than 85%). The “rice … (growth inhibition rate)” value in the data set on rice (200 g a.i./ha) was 0 (Level 0: the growth inhibition rate is less than 5%). In data set [2], the “Activity level (growth inhibition rate), Abutilon theophrasti Medic.” value was 5 (Level 5: the growth inhibition rate is greater than 85%); the “Activity level (growth inhibition rate), Galium aparine” value was 5 (Level 5: the growth inhibition rate is greater than 85%); the “Activity level (growth inhibition rate), Monochoria Vaginalis” value was 5 (Level 5: the growth inhibition rate is greater than 85%). For the same compound, the “rice, safety level 0-5” value in the data set on rice (japonica rice) was 0 (Level 0: the growth inhibition rate is less than 5%). The “Monochoria Vaginalis, activity level 0-5” value in the data set on Monochoria vaginalis (1000 g a.i./ha) was 5 (Level 5: the growth inhibition rate is greater than 85%).

Take `CC(Oc1nc(F)c(Cl)c(N)c1Cl)C(=O)OCc1ccccc1` (centres unmarked) [Compound 2-300]: in the data set on Echinochloa crusgalli (setting [3]), the “Echinochloa crusgalli, activity level (growth inhibition rate)” value is 5 (Level 5: the growth inhibition rate is greater than 85%). Moreover, the “Activity level (growth inhibition rate), Echinochloa crusgalli” value in the data set with Echinochloa crusgalli was 5 (Level 5: the growth inhibition rate is greater than 85%). Moreover, the “Digitaria sanguinalis, activity level (growth inhibition rate)” value in the data set with Digitaria sanguinalis (setting [4]) is given as 5 (Level 5: the growth inhibition rate is greater than 85%). Besides, the “Activity level (growth inhibition rate), Digitaria sanguinalis” value in the data set with Digitaria sanguinalis is 5 (Level 5: the growth inhibition rate is greater than 85%). The “Semen Euphorbiae Lathyridis, activity level (growth inhibition rate)” value in data set [1] (setting [4]) is recorded as 5 (Level 5: the growth inhibition rate is greater than 85%). Also, the “rice … (growth inhibition rate)” value with rice (200 g a.i./ha) was 0 (Level 0: the growth inhibition rate is less than 5%). Besides, in data set [2], the “Activity level (growth inhibition rate), Abutilon theophrasti Medic.” value is 5 (Level 5: the growth inhibition rate is greater than 85%); the “Activity level (growth inhibition rate), Galium aparine” value is 5 (Level 5: the growth inhibition rate is greater than 85%); the “Activity level (growth inhibition rate), Monochoria Vaginalis” value is recorded as 5 (Level 5: the growth inhibition rate is greater than 85%). Further, in the data set on rice (japonica rice), the “rice, safety level 0-5” value is given as 0 (Level 0: the growth inhibition rate is less than 5%). Also, the “Monochoria Vaginalis, activity level 0-5” value in the data set on Monochoria vaginalis (1000 g a.i./ha) is 5 (Level 5: the growth inhibition rate is greater than 85%).

Consider `COc1cnc(OC)n2nc(NS(=O)(=O)c3c(OCC(F)F)cccc3C(F)(F)F)nc12` [penoxsulam, reference compound], for which, in the data set on Monochoria vaginalis (50 g a.i./ha), the “Monochoria Vaginalis, activity level 0-5” value was 1 (Level 1: the growth inhibition rate is equal to or greater than 5% and less than 20%).

In the case of `C[C@@H](Oc1nc(F)c(Cl)c(N)c1Cl)C(=O)OCCCC(F)(F)F` [Compound 2-280], the “Echinochloa crusgalli, activity level (growth inhibition rate)” value in the data set on Echinochloa crusgalli (setting [3]) is 5 (Level 5: the growth inhibition rate is greater than 85%). Moreover, the “Activity level (growth inhibition rate), Echinochloa crusgalli” value with Echinochloa crusgalli is reported as 5 (Level 5: the growth inhibition rate is greater than 85%). In addition, the “Digitaria sanguinalis, activity level (growth inhibition rate)” value in the data set with Digitaria sanguinalis (setting [4]) is listed as 5 (Level 5: the growth inhibition rate is greater than 85%). Further, the “Activity level (growth inhibition rate), Digitaria sanguinalis” value in the data set with Digitaria sanguinalis is reported as 5 (Level 5: the growth inhibition rate is greater than 85%). Further, in data set [1] (setting [4]), the “Semen Euphorbiae Lathyridis, activity level (growth inhibition rate)” value is 5 (Level 5: the growth inhibition rate is greater than 85%). Moreover, the “rice … (growth inhibition rate)” value in the data set on rice (200 g a.i./ha) is recorded as 0 (Level 0: the growth inhibition rate is less than 5%). Moreover, in data set [2], the “Activity level (growth inhibition rate), Abutilon theophrasti Medic.” value is recorded as 5 (Level 5: the growth inhibition rate is greater than 85%); the “Activity level (growth inhibition rate), Galium aparine” value is listed as 5 (Level 5: the growth inhibition rate is greater than 85%); the “Activity level (growth inhibition rate), Monochoria Vaginalis” value was 5 (Level 5: the growth inhibition rate is greater than 85%).

Turning to `CCCCCCCOC(=O)[C@@H](C)Oc1nc(F)c(Cl)c(N)c1Cl` [Compound 2-121], the “Echinochloa crusgalli, activity level (growth inhibition rate)” value in the data set with Echinochloa crusgalli (setting [3]) is listed as 5 (Level 5: the growth inhibition rate is greater than 85%). In addition, the “Activity level (growth inhibition rate), Echinochloa crusgalli” value in the data set on Echinochloa crusgalli is 5 (Level 5: the growth inhibition rate is greater than 85%). In addition, the “Digitaria sanguinalis, activity level (growth inhibition rate)” value with Digitaria sanguinalis (setting [4]) was 5 (Level 5: the growth inhibition rate is greater than 85%). For the same compound, in the data set with Digitaria sanguinalis, the “Activity level (growth inhibition rate), Digitaria sanguinalis” value was 5 (Level 5: the growth inhibition rate is greater than 85%). The “Semen Euphorbiae Lathyridis, activity level (growth inhibition rate)” value in data set [1] (setting [4]) is given as 5 (Level 5: the growth inhibition rate is greater than 85%). Moreover, the “rice … (growth inhibition rate)” value with rice (200 g a.i./ha) is given as 0 (Level 0: the growth inhibition rate is less than 5%). For the same compound, in data set [2], the “Activity level (growth inhibition rate), Abutilon theophrasti Medic.” value is listed as 5 (Level 5: the growth inhibition rate is greater than 85%); the “Activity level (growth inhibition rate), Galium aparine” value was 5 (Level 5: the growth inhibition rate is greater than 85%); the “Activity level (growth inhibition rate), Monochoria Vaginalis” value is on record as 5 (Level 5: the growth inhibition rate is greater than 85%).

As to `CCCCCCCCCCCCOC(=O)[C@@H](C)Oc1nc(F)c(Cl)c(N)c1Cl` [Compound 2-235], the “Echinochloa crusgalli, activity level (growth inhibition rate)” value with Echinochloa crusgalli (setting [3]) is 5 (Level 5: the growth inhibition rate is greater than 85%). Also, in the data set on Echinochloa crusgalli, the “Activity level (growth inhibition rate), Echinochloa crusgalli” value was 5 (Level 5: the growth inhibition rate is greater than 85%). For the same compound, the “Digitaria sanguinalis, activity level (growth inhibition rate)” value with Digitaria sanguinalis (setting [4]) is recorded as 5 (Level 5: the growth inhibition rate is greater than 85%). Further, in the data set on Digitaria sanguinalis, the “Activity level (growth inhibition rate), Digitaria sanguinalis” value is recorded as 5 (Level 5: the growth inhibition rate is greater than 85%). Also, the “Semen Euphorbiae Lathyridis, activity level (growth inhibition rate)” value in data set [1] (setting [4]) is 5 (Level 5: the growth inhibition rate is greater than 85%). For the same compound, the “rice … (growth inhibition rate)” value in the data set on rice (200 g a.i./ha) is reported as 0 (Level 0: the growth inhibition rate is less than 5%). In addition, in data set [2], the “Activity level (growth inhibition rate), Abutilon theophrasti Medic.” value is 5 (Level 5: the growth inhibition rate is greater than 85%); the “Activity level (growth inhibition rate), Galium aparine” value was 5 (Level 5: the growth inhibition rate is greater than 85%); the “Activity level (growth inhibition rate), Monochoria Vaginalis” value is 5 (Level 5: the growth inhibition rate is greater than 85%).
